Laboratory results: patent US20090304692A1, “TRIAZINE COMPOUNDS AS PI3 KINASE AND MTOR INHIBITORS” (Wyeth, priority 2008, published 2009)
Several values for one entry are separate records, joined by “and”; a condition that tells them apart may be missing. Equal values may be shown once. Read-outs that look alike come from different tables or passages of the source.

Assays:
[1] = tested on: human prostate LNCap tumor cell line; test: In vitro cell culture growth assay (MTS), LNCap; conditions: read-out: IC50 LNCap
PI3K-α = PI3K-α (Homo sapiens, UniProt P42336); test: PI3K-alpha fluorescence polarization assay; conditions: read-out: IC50 PI3Kα
Sequence of PI3K-α (P42336 whole entry, species assumed): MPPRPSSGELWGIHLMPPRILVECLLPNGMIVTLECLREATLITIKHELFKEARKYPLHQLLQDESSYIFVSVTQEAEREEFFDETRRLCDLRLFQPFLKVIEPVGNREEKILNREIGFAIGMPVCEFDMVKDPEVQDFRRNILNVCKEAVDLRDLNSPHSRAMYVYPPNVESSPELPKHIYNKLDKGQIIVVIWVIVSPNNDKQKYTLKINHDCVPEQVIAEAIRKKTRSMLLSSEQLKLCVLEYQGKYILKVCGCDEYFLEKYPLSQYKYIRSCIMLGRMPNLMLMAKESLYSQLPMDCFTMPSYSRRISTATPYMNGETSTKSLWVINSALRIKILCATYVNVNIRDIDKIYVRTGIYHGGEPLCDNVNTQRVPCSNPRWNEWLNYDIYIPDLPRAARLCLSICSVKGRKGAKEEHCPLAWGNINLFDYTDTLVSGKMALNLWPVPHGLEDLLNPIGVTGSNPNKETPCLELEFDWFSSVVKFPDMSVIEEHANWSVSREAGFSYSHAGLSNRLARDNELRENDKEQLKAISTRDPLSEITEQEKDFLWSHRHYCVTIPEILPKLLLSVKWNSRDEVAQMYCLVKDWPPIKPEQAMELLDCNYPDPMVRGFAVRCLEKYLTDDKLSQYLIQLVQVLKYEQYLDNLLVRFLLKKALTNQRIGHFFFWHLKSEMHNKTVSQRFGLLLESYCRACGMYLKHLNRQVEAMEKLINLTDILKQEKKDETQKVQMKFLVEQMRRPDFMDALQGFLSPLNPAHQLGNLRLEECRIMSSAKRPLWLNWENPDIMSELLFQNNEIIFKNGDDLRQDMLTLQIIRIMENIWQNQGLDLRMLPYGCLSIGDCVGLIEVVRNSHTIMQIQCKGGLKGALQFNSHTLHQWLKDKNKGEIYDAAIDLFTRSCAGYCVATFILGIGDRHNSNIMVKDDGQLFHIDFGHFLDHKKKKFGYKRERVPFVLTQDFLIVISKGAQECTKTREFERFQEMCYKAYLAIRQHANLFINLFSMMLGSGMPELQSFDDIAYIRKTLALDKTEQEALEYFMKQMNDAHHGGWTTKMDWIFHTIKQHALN
Sequence of PI3K-α (P27986 whole entry partner, species assumed): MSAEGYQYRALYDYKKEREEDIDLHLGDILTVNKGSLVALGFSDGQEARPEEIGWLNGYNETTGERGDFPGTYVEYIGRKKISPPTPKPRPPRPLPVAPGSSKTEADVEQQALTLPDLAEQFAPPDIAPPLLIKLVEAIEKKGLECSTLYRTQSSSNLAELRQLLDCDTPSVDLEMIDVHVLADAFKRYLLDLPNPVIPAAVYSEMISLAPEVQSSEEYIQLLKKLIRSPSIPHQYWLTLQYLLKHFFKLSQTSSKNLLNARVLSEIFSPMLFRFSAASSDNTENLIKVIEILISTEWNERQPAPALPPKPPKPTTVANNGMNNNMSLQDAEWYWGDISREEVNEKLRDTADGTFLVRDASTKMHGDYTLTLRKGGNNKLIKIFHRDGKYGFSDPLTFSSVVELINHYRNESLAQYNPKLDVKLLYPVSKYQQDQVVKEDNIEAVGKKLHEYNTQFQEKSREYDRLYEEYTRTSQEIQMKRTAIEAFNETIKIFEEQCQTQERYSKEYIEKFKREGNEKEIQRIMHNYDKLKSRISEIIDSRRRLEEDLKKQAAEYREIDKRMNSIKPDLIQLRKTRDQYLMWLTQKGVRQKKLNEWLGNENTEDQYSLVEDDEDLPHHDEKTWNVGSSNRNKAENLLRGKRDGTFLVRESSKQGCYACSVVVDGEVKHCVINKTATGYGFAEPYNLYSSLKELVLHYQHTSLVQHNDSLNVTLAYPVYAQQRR

Human mTOR (FLAG-TOR) = Human mTOR (FLAG-TOR) (Homo sapiens, UniProt P42345); test: mTOR kinase assay (DELFIA format, purified enzyme); assay type: biochemical; conditions: read-out: IC50 mTOR
Sequence of Human mTOR (FLAG-TOR) (P42345 1360-2549 limits assumed): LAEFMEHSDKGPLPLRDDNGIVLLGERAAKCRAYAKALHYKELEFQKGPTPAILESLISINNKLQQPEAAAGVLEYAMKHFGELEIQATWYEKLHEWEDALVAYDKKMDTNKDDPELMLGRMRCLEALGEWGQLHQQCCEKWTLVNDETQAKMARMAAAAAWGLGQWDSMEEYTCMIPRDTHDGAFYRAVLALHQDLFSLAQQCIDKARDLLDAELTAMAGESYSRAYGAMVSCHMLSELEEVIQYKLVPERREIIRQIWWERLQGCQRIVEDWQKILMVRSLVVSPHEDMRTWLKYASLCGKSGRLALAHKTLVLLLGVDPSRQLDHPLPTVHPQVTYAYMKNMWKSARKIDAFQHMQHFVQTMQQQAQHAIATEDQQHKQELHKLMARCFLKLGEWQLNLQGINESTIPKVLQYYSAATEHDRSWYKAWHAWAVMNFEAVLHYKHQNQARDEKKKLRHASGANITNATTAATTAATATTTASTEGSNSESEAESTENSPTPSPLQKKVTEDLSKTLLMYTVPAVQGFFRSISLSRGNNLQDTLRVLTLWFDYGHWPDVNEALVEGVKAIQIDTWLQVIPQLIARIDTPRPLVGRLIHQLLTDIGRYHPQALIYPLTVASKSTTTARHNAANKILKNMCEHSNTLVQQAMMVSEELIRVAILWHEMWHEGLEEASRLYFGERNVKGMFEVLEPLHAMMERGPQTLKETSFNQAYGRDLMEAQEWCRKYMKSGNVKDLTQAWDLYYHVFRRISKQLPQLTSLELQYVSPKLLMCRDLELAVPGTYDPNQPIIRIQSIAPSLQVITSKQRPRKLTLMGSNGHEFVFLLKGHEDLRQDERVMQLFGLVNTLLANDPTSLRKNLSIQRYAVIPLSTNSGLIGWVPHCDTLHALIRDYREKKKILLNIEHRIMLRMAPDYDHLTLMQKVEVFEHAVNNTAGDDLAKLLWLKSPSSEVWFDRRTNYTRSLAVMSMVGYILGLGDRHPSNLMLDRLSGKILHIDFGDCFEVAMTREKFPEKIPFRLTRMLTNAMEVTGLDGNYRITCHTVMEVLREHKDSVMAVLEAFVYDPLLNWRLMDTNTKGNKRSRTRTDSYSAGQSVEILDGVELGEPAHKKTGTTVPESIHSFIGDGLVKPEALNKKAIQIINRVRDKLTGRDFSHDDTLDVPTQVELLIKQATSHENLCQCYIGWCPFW

PI3K-γ = PI3K-γ (Homo sapiens, UniProt P48736); test: PI3K-gamma fluorescence polarization assay; conditions: read-out: IC50 PI3Kγ
Sequence of PI3K-γ (P48736 whole entry, species assumed): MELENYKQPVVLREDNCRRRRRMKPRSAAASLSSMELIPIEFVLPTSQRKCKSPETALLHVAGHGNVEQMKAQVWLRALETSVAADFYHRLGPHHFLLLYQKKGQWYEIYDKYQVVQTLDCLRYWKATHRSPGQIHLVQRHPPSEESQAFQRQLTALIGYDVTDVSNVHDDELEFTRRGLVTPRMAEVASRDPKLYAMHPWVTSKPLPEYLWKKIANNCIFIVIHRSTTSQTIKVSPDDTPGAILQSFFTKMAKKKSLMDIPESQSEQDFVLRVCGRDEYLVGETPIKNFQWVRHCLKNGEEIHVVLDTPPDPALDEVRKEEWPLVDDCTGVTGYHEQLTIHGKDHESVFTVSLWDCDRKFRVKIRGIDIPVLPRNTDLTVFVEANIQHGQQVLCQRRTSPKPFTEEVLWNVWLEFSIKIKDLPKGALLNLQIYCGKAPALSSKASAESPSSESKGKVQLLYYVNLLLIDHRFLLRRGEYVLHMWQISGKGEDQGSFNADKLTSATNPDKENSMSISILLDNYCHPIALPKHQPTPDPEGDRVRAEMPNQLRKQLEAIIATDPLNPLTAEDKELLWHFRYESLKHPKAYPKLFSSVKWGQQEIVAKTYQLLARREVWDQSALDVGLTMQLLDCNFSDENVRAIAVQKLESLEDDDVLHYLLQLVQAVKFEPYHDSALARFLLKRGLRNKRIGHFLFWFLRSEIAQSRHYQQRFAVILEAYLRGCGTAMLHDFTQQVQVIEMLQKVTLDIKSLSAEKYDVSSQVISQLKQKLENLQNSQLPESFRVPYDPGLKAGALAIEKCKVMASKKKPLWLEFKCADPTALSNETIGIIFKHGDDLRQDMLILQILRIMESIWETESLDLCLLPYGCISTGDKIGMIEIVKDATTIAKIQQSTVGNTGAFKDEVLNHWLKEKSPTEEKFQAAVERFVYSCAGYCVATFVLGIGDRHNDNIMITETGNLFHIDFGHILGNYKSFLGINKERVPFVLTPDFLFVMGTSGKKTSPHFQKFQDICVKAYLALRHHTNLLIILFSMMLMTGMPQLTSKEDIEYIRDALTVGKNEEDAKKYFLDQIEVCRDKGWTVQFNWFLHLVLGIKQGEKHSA

Row | Structure (SMILES) | IC50 ([1]; Homo sapiens, LNCaP, 72 h) [nM] | IC50 (PI3K-α) [nM] | IC50 (Human mTOR (FLAG-TOR)) | IC50 (PI3K-γ) [µM] | IC50 ([1]; MTS cell growth assay, three days after drug treatment) [nM] | IC50 (PI3K-α; listed as 335) [nM] | IC50 (PI3K-γ; listed as 335) [µM] | IC50 (PI3K-α; listed as 354) [nM] | IC50 (PI3K-γ; listed as 354) [µM] | IC50 (PI3K-γ; listed as 717) [µM]
1 | CCNc1nc(-c2ccc(NC(=O)Nc3cccnc3)cc2)nc(N2CC3CCC(C2)O3)n1 [Example 191, 1-{4-[4-(ethylamino)-6-(8-oxa-3-azabicyclo[3.2.1]oct-3-yl)-1,3,5-triazin-2-yl]phenyl}-3-pyridin-3-ylurea] | 220 | 435 | 16 nM | 4.63 |  |  |  |  |  | 
2 | CN(C)c1nc(-c2ccc(NC(=O)Nc3cccnc3)cc2)nc(N2CC3CCC(C2)O3)n1 [Example 192, 1-{4-[4-(dimethylamino)-6-(8-oxa-3-azabicyclo[3.2.1]oct-3-yl)-1,3,5-triazin-2-yl]phenyl}-3-pyridin-3-ylurea] | 620 | 1120 | 43 nM | 0.453 |  |  |  |  |  | 
3 | CC(C)Nc1nc(-c2ccc(NC(=O)Nc3cccnc3)cc2)nc(N2CC3CCC(C2)O3)n1 [Example 193, 1-{4-[4-(isopropylamino)-6-(8-oxa-3-azabicyclo[3.2.1]oct-3-yl)-1,3,5-triazin-2-yl]phenyl}-3-pyridin-3-ylurea] | 105 | 401 | 0.8 nM | 3.13 |  |  |  |  |  | 
4 | CNC(=O)Nc1ccc(-c2nc(NC(C)C)nc(N3CC4CCC(C3)O4)n2)cc1 [Example 212, 1-methyl-3-(4-{4-[(1-methylethyl)amino]-6-(8-oxa-3-azabicyclo[3.2.1]oct-3-yl)-1,3,5-triazin-2-yl}phenyl)urea] | 420 | 902 | 6.4 nM | 8.77 |  |  |  |  |  | 
5 | CC(C)Nc1nc(-c2ccc(NC(=O)Nc3ccc(C(=O)NN(C)C)cc3)cc2)nc(N2CC3CCC(C2)O3)n1 [Example 218, 1-{4-[(2,2-dimethylhydrazino)carbonyl]phenyl}-3-(4-{4-[(1-methylethyl)amino]-6-(8-oxa-3-azabicyclo[3.2.1]oct-3-yl)-1,3,5-triazin-2-yl}phenyl)urea] | 12 | 279 | 2.6 nM | 2.78 |  |  |  |  |  | 
6 | CC(C)Nc1nc(-c2ccc(NC(=O)Nc3ccc(C(=O)NN4CCCC4)cc3)cc2)nc(N2CC3CCC(C2)O3)n1 [Example 219, 4-{[(4-{4-[(1-methylethyl)amino]-6-(8-oxa-3-azabicyclo[3.2.1]oct-3-yl)-1,3,5-triazin-2-yl}phenyl)carbamoyl]amino}-N-pyrrolidin-1-ylbenzamide] | 40 | 561 | 5.9 nM | 8.28 |  |  |  |  |  | 
7 | O=C(Nc1ccncc1)Nc1ccc(-c2nc(N3C4CCC3COC4)nc(N3C4CCC3COC4)n2)cc1 [Example 224, 1-[4-(4,6-di-3-oxa-8-azabicyclo[3.2.1]oct-8-yl-1,3,5-triazin-2-yl)phenyl]-3-pyridin-4-ylurea] | < 0.8 | 444 | 0.4 nM and 0.395 nM | 5.87 |  |  |  |  |  | 5.87
8 | COCCNc1nc(-c2ccc(NC(=O)Nc3cccnc3)cc2)nc(N2CC3CCC(C2)O3)n1 [Example 258, 1-(4-{4-[(2-methoxyethyl)amino]-6-(8-oxa-3-azabicyclo[3.2.1]oct-3-yl)-1,3,5-triazin-2-yl}phenyl)-3-pyridin-3-ylurea] | 60 | 403 | 2.3 nM | 6.17 |  |  |  |  |  | 
9 | C[C@@H](CO)Nc1nc(-c2ccc(NC(=O)Nc3cccnc3)cc2)nc(N2CC3CCC(C2)O3)n1 [Example 259, 1-{4-[4-{[(1S)-2-hydroxy-1-methylethyl]amino}-6-(8-oxa-3-azabicyclo[3.2.1]oct-3-yl)-1,3,5-triazin-2-yl]phenyl}-3-pyridin-3-ylurea] | 580 | 408 | 2.4 nM | 5.41 |  |  |  |  |  | 
10 | C[C@H](CO)Nc1nc(-c2ccc(NC(=O)Nc3cccnc3)cc2)nc(N2CC3CCC(C2)O3)n1 [Example 260, 1-{4-[4-{[(1R)-2-hydroxy-1-methylethyl]amino}-6-(8-oxa-3-azabicyclo[3.2.1]oct-3-yl)-1,3,5-triazin-2-yl]phenyl}-3-pyridin-3-ylurea] | 380 | 417 | 0.9 nM | 4.73 |  |  |  |  |  | 
11 | O=C(Nc1ccc(-c2nc(N3C[C@@H]4C[C@H]3CO4)nc(N3C[C@@H]4C[C@H]3CO4)n2)cc1)Nc1ccc(N2CCNCC2)cc1 [Example 313, 1-{4-[4,6-di-(1S,4S)-2-oxa-5-azabicyclo[2.2.1]hept-5-yl-1,3,5-triazin-2-yl]phenyl}-3-(4-piperazin-1-ylphenyl)urea] |  | 1730 | 37 nM | 7.49 | 100 |  |  |  |  | 
12 | CN1CCN(c2ccc(Nc3nc(-c4ccc(NC(=O)NCCF)cc4)nc(N4CC5CCC(C4)O5)n3)cc2)CC1 [Example 315, 1-(2-fluoroethyl)-3-{4-[4-{[4-(4-methylpiperazin-1-yl)phenyl]amino}-6-(8-oxa-3-azabicyclo[3.2.1]oct-3-yl)-1,3,5-triazin-2-yl]phenyl}urea] | 300 | 1100 | 5 nM and 5.8 nM | 7.9 |  |  |  |  |  | 
13 | CN1CCN(c2ccc(Nc3nc(-c4ccc(NC(=O)NC5CC5)cc4)nc(N4CC5CCC(C4)O5)n3)cc2)CC1 [Example 316, 1-cyclopropyl-3-{4-[4-{[4-(4-methylpiperazin-1-yl)phenyl]amino}-6-(8-oxa-3-azabicyclo[3.2.1]oct-3-yl)-1,3,5-triazin-2-yl]phenyl}urea] | 320 | 1410 | 71 nM and 11 nM | 2.69 |  |  |  |  |  | 
14 | O=C(Nc1ccc(-c2nc(Nc3ccc(N4CCNCC4)cc3)nc(N3CC4CCC(C3)O4)n2)cc1)NC1CC1 [Example 326, 1-cyclopropyl-3-(4-{4-(8-oxa-3-azabicyclo[3.2.1]oct-3-yl)-6-[(4-piperazin-1-ylphenyl)amino]-1,3,5-triazin-2-yl}phenyl)urea] | 580 | 830 | 12.2 nM and 12 nM | 6.19 |  |  |  |  |  | 

Continued, in another order:

Row | IC50 ([1]; Homo sapiens, LNCaP, 72 h) [nM] | IC50 (PI3K-α) [nM] | IC50 (Human mTOR (FLAG-TOR)) | IC50 (PI3K-γ) [µM] | IC50 ([1]; MTS cell growth assay, three days after drug treatment) [nM] | IC50 (PI3K-α; listed as 335) [nM] | IC50 (PI3K-γ; listed as 335) [µM] | IC50 (PI3K-α; listed as 354) [nM] | IC50 (PI3K-γ; listed as 354) [µM] | Structure (SMILES) | IC50 (PI3K-γ; listed as 717) [µM]
15 | 30 | 187 | 1.2 nM | 3.16 |  |  |  |  |  | CC(C)Nc1nc(-c2ccc(NC(=O)Nc3ccncc3)cc2)nc(N2CC3CCC(C2)O3)n1 [Example 215, 1-(4-{4-[(1-methylethyl)amino]-6-(8-oxa-3-azabicyclo[3.2.1]oct-3-yl)-1,3,5-triazin-2-yl}phenyl)-3-pyridin-4-ylurea] | 
16 | 13 | 253 | 3.2 nM | 3.23 |  |  |  |  |  | CC(C)Nc1nc(-c2ccc(NC(=O)Nc3ccc(N4CCN(C)CC4)cc3)cc2)nc(N2CC3CCC(C2)O3)n1 [Example 217, 1-(4-{4-[(1-methylethyl)amino]-6-(8-oxa-3-azabicyclo[3.2.1]oct-3-yl)-1,3,5-triazin-2-yl}phenyl)-3-[4-(4-methylpiperazin-1-yl)phenyl]urea] | 
17 | 40 | 275 | 3.5 nM | 2.83 |  |  |  |  |  | CC(C)Nc1nc(-c2ccc(NC(=O)Nc3ccc(OCCN(C)C)cc3)cc2)nc(N2CC3CCC(C2)O3)n1 [Example 220, 1-{4-[2-(dimethylamino)ethoxy]phenyl}-3-(4-{4-[(1-methylethyl)amino]-6-(8-oxa-3-azabicyclo[3.2.1]oct-3-yl)-1,3,5-triazin-2-yl}phenyl)urea] | 
18 | 120 | 214 | 2.7 nM | 4.28 |  |  |  |  |  | CC(C)Nc1nc(-c2ccc(NC(=O)Nc3ccc(CO)cc3)cc2)nc(N2CC3CCC(C2)O3)n1 [Example 221, 1-[4-(hydroxymethyl)phenyl]-3-(4-{4-[(1-methylethyl)amino]-6-(8-oxa-3-azabicyclo[3.2.1]oct-3-yl)-1,3,5-triazin-2-yl}phenyl)urea] | 
19 | 10 | 152 | 0.5 nM | 0.572 |  |  |  |  |  | CC(C)Nc1nc(-c2ccc(NC(=O)Nc3ccc(CCO)cc3)cc2)nc(N2CC3CCC(C2)O3)n1 [Example 222, 1-[4-(2-hydroxyethyl)phenyl]-3-(4-{4-[(1-methylethyl)amino]-6-(8-oxa-3-azabicyclo[3.2.1]oct-3-yl)-1,3,5-triazin-2-yl}phenyl)urea] | 
20 | 30 | 158 | 0.31 nM | 2.53 |  |  |  |  |  | CC(C)(CO)Nc1nc(-c2ccc(NC(=O)Nc3cccnc3)cc2)nc(N2CC3CCC(C2)O3)n1 [Example 261, 1-(4-{4-[(2-hydroxy-1,1-dimethylethyl)amino]-6-(8-oxa-3-azabicyclo[3.2.1]oct-3-yl)-1,3,5-triazin-2-yl}phenyl)-3-pyridin-3-ylurea] | 
21 | 22 | 105 | 0.29 nM | 0.954 |  |  |  |  |  | CC(C)(C)Nc1nc(-c2ccc(NC(=O)Nc3cccnc3)cc2)nc(N2CC3CCC(C2)O3)n1 [Example 262, 1-{4-[4-(tert-butylamino)-6-(8-oxa-3-azabicyclo[3.2.1]oct-3-yl)-1,3,5-triazin-2-yl]phenyl}-3-pyridin-3-ylurea] | 
22 | 220 | 80 | 4.4 nM and 4 nM | 1.45 |  | 81 | 0.144 |  |  | CN1CCN(c2ccc(Nc3nc(-c4ccc(NC(=O)Nc5ccccc5)cc4)nc(N4CC5CCC(C4)O5)n3)cc2)CC1 [Example 319, 1-{4-[4-{[4-(4-methylpiperazin-1-yl)phenyl]amino}-6-(8-oxa-3-azabicyclo[3.2.1]oct-3-yl)-1,3,5-triazin-2-yl]phenyl}-3-phenylurea] | 
23 | 310 | 74 | 4.6 nM | 6.24 |  |  |  | 69 | 6.22 | CNC(=O)Nc1ccc(-c2nc(Nc3ccc(N4CCNCC4)cc3)nc(N3CC4CCC(C3)O4)n2)cc1 [Example 325, 1-methyl-3-(4-{4-(8-oxa-3-azabicyclo[3.2.1]oct-3-yl)-6-[(4-piperazin-1-ylphenyl)amino]-1,3,5-triazin-2-yl}phenyl)urea] | 
